System: pulmonary adenocarcinoma
Assay: clinical course under other anticancer drugs in the lung cancer cases
Format: in vivo, human
From the text: Each case is disclosed in detail below.

Row | Compound | side effects (case 2, oral dosing from September to May 2014, no ketogenic diet) | adverse event due to erlotinib (case 4, August 2014, on the head) | primary tumor (primary lesion) under erlotinib administration (one patient who left the ketogenic diet after the 3 month evaluation)
1 | COc1cc2ncnc(Nc3ccc(F)c(Cl)c3)c2cc1OCCCN1CCOCC1 [Iressa, gefitinib] | not found | – | –
2 | C#Cc1cccc(Nc2ncnc3cc(OCCOC)c(OCCOC)cc23)c1 [erlotinib] | – | eczema | contraction

Reference: patent US20180214410A1, “Development of Dietary Therapy in Cancer” (Osaka University, priority 2015, published 2018)
